Results from patent publication US11478466B2, “Small molecule promoting osteoblast differentiation” (Cornell University, priority 2019, dated 2022).

How the values were obtained:
[1] = tested on: alkaline phosphatase (ALP); assay: ALP expression staining in C2C12 cells; format: cell-based, mouse; conditions: for ALP expression by staining: C2C12, 2 days, 10 μM
Experimental: C2C12 cells were treated for 2 days with 10 μM DIPQUO or structural analogs, 1 ng/ml rhBMP4, or with inhibitors as noted in figure legends, and then fixed briefly in 70% acetone/10% formaldehyde/20% citrate. Staining was achieved using the leukocyte alkaline phosphatase kit (Sigma 86R-1KT) according to the manufacturer's instructions. Expression of ALP was confirmed and quantified by flow cytometric analysis, using an Accuri C6 flow cytometer. Briefly, control- or DIPQUO-treated C2C12 cells were detached and harvested on day 2 using PBS-based enzyme-free cell detachment solution (ThermoFisher). 2×10^5 cells were incubated on ice for 30 minutes with 10 μl APC-conjugated ALPL antibody (R&D Systems), and washed in ice-cold PBS before analysis. Live cells were gated and analyzed in CFlow Plus software and then data was converted to FlowJo to achieve publication-level resolution. For siRNA experiments, gene-specific oligonucleotides were obtained for mouse p38-alpha (Cell Signaling) and p38-beta (Santa Cruz). Signal Silence scramble siRNA control oligonucleotide was purchased from Cell Signaling. C2C12 cells at 70% confluency were transfected in 12-well plates using Lipofectamine RNAiMax reagent (Invitrogen) according to manufacturer's instructions. Transfected cells were treated 24 hours later with DMSO or 10 μM DIPQUO, and siRNA transfection was repeated after 48 hours without changing culture media. After an additional 3 days, cells were either fixed and stained for ALP expression or analyzed for ALP activity using the AttoPhos Substrate kit. Hemagglutinin and FLAG epitope-tagged MKK3 (pMT2-HA-MKK3) and MKK6 (pcDNA3-FLAG-MKK6) constructs were obtained from Addgene and transfected into C2C12 cells using Lipofectamine LTX with Plus Reagent (ThermoFisher) according to manufacturer's instructions and cell extracts analyzed for protein expression and activity as described below.

[2] = tested on: alkaline phosphatase (ALP); conditions: SAR of library and proprietary analogs, AttoPhos assay, C2C12
Description: (§2) To identify small-molecule activators of osteoblast differentiation, we measured ALP activity using a fluorescent emission assay as a reporter for enzymatic digestion of ALP substrate in lysates derived from C2C12 myoblasts. […] Therefore, before screening, the assay was calibrated using recombinant human BMP4 protein as a positive control. Compounds were robotically deposited onto 384-well plates and then overlaid by C2C12 cells for a 4-day culture period, followed by lysis and fluorescent substrate assays (FIG. 1A; Table 1). To ensure uniformity, C2C12 cells were maintained in normal culture medium containing 10% fetal bovine serum, and lysis and substrate addition achieved using a microplate multidrop device. The primary screen (Table 2) encompassed greater than 47,000 small molecules tested at a final concentration of 10 μM.
(§3) For the primary screen, library compounds were distributed onto 384-well microplates (Greiner Bio-One 781091) at a final concentration of 10 μM in culture medium using a Perkin Elmer Janus automated workstation and WinPrep Version 4.8.3.315. Positive (rhBMP4, 1 ng/ml, R&D Systems) and negative controls (DMSO, 0.2%) were manually added to each plate by multichannel pipet. C2C12 cells were seeded onto compounds and controls at a density of 2000/well using a Thermo Multidrop Combi reagent dispenser and cultured for 4 days at 37° C., 5% CO2. Culture medium was aspirated using a BioTek EL406 plate washer and cells were lysed in RIPA buffer (Millipore 20-188) at ambient temperature for 10 minutes. 10 μl fluorescent alkaline phosphatase substrate (AttoPhos, Promega S1000) was added to lysates and incubated an additional 10 minutes before measuring the fluorescence (Excitation 450 nm/Emission 580 nm) on a BioTek Synergy Neo2 stacking microplate reader. Plates were processed and relative fluorescence raw values measured in stacks of 10-20. The data were processed using Collaborative Drug Discovery web-based software (CDD Vault) to determine Z score calculated on DMSO control wells and percent activation normalized against positive and negative controls (NPA). Cherry-picked hit candidates were re-tested in concentration response experiments, from which 4 candidates were chosen and purchased for further testing from either ChemBridge or Enamine, based on availability.
(§4) We also purchased a library of 154 structural chemical analogs assembled by ChemBridge Corp. from available screening library compounds.

[3] = tested on: alkaline phosphatase (ALP); assay: cells; conditions: Mus musculus, C2C12
Description: as §2, §3, §4

JNK p54 = assay: Western blotting of JNK in C2C12 cells; format: cell-based, mouse
Experimental: (§1) Whole cell extracts were collected from C2C12 or BRITER cells in complete lysis buffer (20 mM Tris, 150 mM NaCl, 50 mM NaF, 1% NP40 substitute, HALT protease inhibitor cocktail (ThermoScientific). Proteins were resolved by electrophoresis on pre-cast 10% NuPage Bis-Tris gels (Invitrogen) and transferred to PVDF membranes (Bio-Rad). Membranes were blocked in 5% BSA-TBS-0.5% Tween-20 for 15 minutes, then incubated at 4° overnight with primary antibodies. Antibodies used were: rabbit anti-phospho-p38 MAPK (cat. no. 9211), anti-p38 MAPK XP (8690), anti-phospho-SMAD1/5 (9516), anti-SMAD1 XP (6944), anti-phospho-SMAD2/3 (8828), anti-SMAD2/3 XP (8685), anti-phospho-JNK (4668), anti-SAPK/JNK (9252), anti-phospho-Akt XP (4060), pan anti-Akt (4691), anti-phospho ERK p42/p44 (4377), anti-ERK p42/p44 (9102), anti-phospho-MKK3/6 (12280), anti-MKK3 (8535), anti-phospho-TAK1 (4531), anti-TAK1 (5206), anti-HA (3274), and anti-FLAG (14793); all from Cell Signaling); and mouse anti-p38α (cat. no. 33-1300), anti-p38β (33-8700; both ThermoFisher) and anti-β-actin (Sigma A1978). Proteins were visualized with HRP-conjugated secondary antibodies (Bio-Rad) with WestPico (ThermoFisher) or Immobilon (Millipore) chemiluminescence reagents. Images were obtained and analyzed for relative densitometric relationships on a LI-COR C-DiGit scanner using Image Studio software.

p38 MAPK = assay: Western blotting of p38 MAPK phosphorylation in C2C12 cells; format: cell-based, mouse; conditions: C2C12, western blotting
Experimental: as §1

[4] = tested on: RAW 264.7 murine macrophage cell line; assay: Osteoclast differentiation (TRAP staining, qRT-PCR) in RAW 264.7 cells; format: cell-based, mouse; conditions: RAW 264.7, 4 days; DIPQUO 10 μM, RANKL 50 ng/ml
Experimental: To address the specificity of DIPQUO for stimulating an osteogenic versus osteoclastic program, the RAW 264.7 murine macrophage cell line was assayed for osteoclast differentiation by staining for tartrate-resistant acid phosphatase (TRAP) to distinguish multinucleated osteoclasts from macrophages. […] Thus, DIPQUO appears to be primarily supportive of osteogenesis.
The RAW 264.7 macrophage cell line was purchased from ATCC and maintained in DMEM with 10% FBS. Cells were treated with 10 μM DIPQUO or 50 ng/ml RANKL (Sigma) for 4 days. Cells were fixed in 70% acetone/10% formaldehyde/20% citrate and TRAP staining was achieved using the Leukocyte Acid Phosphatase kit (Sigma 387A-1KT).
For quantitative RT-PCR analysis of gene expression in C2C12 cultures, cells were treated for 2 days with 10 μM DIPQUO and harvested into Trizol reagent (Invitrogen). One microgram of RNA was reverse transcribed using the VILO-RT kit (Invitrogen) to generate cDNA, which was diluted 1:25 in RNase-free H2O for qPCR with Sybr green using the Roche 480 II LightCycler and the 2^−ΔΔCT method (Livak and Schmittgen, 2001). For analysis of osteoclast gene expression, RAW 264.7 cells were treated with DMSO, 50 ng/ml RANKL, or 10 μM DIPQUO for 4 days, then harvested into Trizol reagent and processed as above. Mouse qPCR primers are as follows. Runx2: F([…]) (SEQ ID NO:1); R([…]) (SEQ ID NO:2); Dlx5: F([…]) (SEQ ID NO:3); R([…]) (SEQ ID NO:4); Osterix: F([…]) (SEQ ID NO:5); R([…]) (SEQ ID NO:6); ALP: F([…]) (SEQ ID NO:7); R([…]) (SEQ ID NO:8); Osteocalcin: F([…]) (SEQ ID NO:9); R([…]) (SEQ ID NO:10); Osteoactivin: F([…]) (SEQ ID NO:11); R([…]) (SEQ ID NO:12); CTSK: F([…]) (SEQ ID NO:13); R([…]) (SEQ ID NO:14); MMP9: F([…]) (SEQ ID NO:15); R([…]) (SEQ ID NO:16); Gapdh F([…]) (SEQ ID NO:17); R([…]) (SEQ ID NO:18). RNA-seq studies were carried out with the assistance of the Weill Cornell Genomics Core Facility, using the Illumina HiSeq4000 next-generation sequencer to generate reads from cDNA libraries generated from three biological replicates of day 2 DMSO- or DIPQUO-treated C2C12 cells. […]

Molecule: COC(=O)c1cc2cc(Cl)ccc2[nH]c1=O [BT344]
- ALP expression by staining [1]: inert
- Fluo. Z Score [2]: 0.61 ± 0.47
- EC50 [3]: 920 nM

Molecule: O=C(O)c1cc2cc(Cl)ccc2[nH]c1=O [BT345]
- ALP expression by staining [1]: inert

Molecule: N#CC(c1ccnc(NCCc2cccnc2)n1)c1nc2ccccc2s1 (stereo not shown) [JNK inhibitor V, reference compound]
- ALP expression by staining [1]: did not lead to ALP-positive staining
- JNK p54 signaling (JNK p54): suppress JNK p54
- p38 MAPK signaling (phosphorylation) (p38 MAPK): activate p38 MAPK

Molecule: c1ccc2c(-c3cnn4cc(-c5ccc(N6CCNCC6)cc5)cnc34)ccnc2c1 [LDN193189, reference compound]
- effect of inhibitor on BMP-driven ALP expression (staining) ([1]; C2C12, co-treatment with BMP): attenuated BMP activation of ALP expression

Molecule: C[C@@H]1CN(Cc2ccc(F)cc2)[C@@H](C)CN1C(=O)c1cc2c(C(=O)C(=O)N(C)C)cn(C)c2cc1Cl [SCI0469, reference compound]
- effect of inhibitor on DIPQUO-driven ALP expression (staining) ([1]; C2C12, co-treatment with DIPQUO): attenuated ALP expression in DIPQUO-treated cells

B1: RANKL: Receptor activator of nuclear factor kB ligand, positive control to stimulate osteoclast differentiation (protein, UniProt O14788 140-317, looked up)
Tumor necrosis factor ligand …: IRAEKAMVDGSWLDLAKRSKLEAQPFAHLTINATDIPSGSHKVSLSSWYHDRGWAKISNMTFSNGKLIVNQDGFYYLYANICFRHHETSGDLATEYLQLMVYVTKTSIKIPSSHTLMKGGSTKYWSGNSEFHFYSINVGGFFKLRSGEEISIEVSNPSLLDPDQDATYFGAFKVRDID
- TRAP staining of multinucleated osteoclasts [4]: found to promote both TRAP staining
